# Experiments:
# DENV2 prME/ZIKV SRIPs = test: E protein-mediated attachment assay with chimeric DENV2 prME/ZIKV SRIPs on Vero E6 cells; format: cell-based, Dengue virus type 2; conditions: Vero C1008, 1 h, read-out: IC50 of E-mediated attachment against DENV2 prME/ZIKV SRIPs
# Procedure: (§1) Figure 7 Attachment inhibition of chimeric DENV2 prM-E/ZIKV and wild-type ZIKV SRIPs by active GL derivatives 3 and 11. Vero E6 cells were pre-cooled and incubated with fresh-prepared mixtures of DENV2 prM-E/ZIKV or wild-type ZIKV SRIPs, with active GL derivatives 3 (A), and 11 (B) at 4 °C for 1 h, respectively. After the removal of the mixtures, the cells were kept at 37 °C for 18 h and then an immunofluorescent assay with anti-ZIKV NS1 antibodies plus DAPI staining was performed. Finally, the inhibition percentage of SRIP attachment infectivity was measured as follows: 1-(percentage of ZIKV NS1 positivity in treated cells/ percentage of ZIKV NS1 positivity in mock-treated cells). * p < 0.05; *** p < 0.001 compared with untreated, infected cells.
# (§2) DNA-launched cytomegaloviruses (CMV) promoter-driven JEV and ZIKV replicons had been constructed, as described in our prior reports. […] After the removal of the mixture (the compound and SRIP), the cells were incubated at 37 °C for 18 h, and then were analyzed by immunofluorescent assay with anti-JEV NS3 and anti-ZIKV NS5 antibodies, respectively, plus DAPI staining for determining the residual infectivity of wild-type and chimeric SRIPs, as described above.
# wild-type JEV SRIPs = test: Attachment assay with wild-type JEV SRIPs on Vero E6 cells; format: cell-based, Japanese encephalitis virus; conditions: 4 °C for 1 h
# Procedure: Figure 6 Attachment inhibition of chimeric DENV2 CprM-E/JEV and wild-type JEV SRIPs by active GL conjugates. Vero E6 cells were pre-cooled and incubated with freshly prepared mixtures of DENV2 CprM-E/JEV or wild-type JEV SRIPs, with active GL derivatives 3 (A), 6 (B), 11 (C), and 21 (D) at 4 °C for 1 h, respectively. After the removal of the mixtures, the cells were kept at 37 °C for 18 h and then an immunofluorescent assay with anti-JEV NS5 antibodies plus DAPI staining was performed. Finally, the inhibition percentage of SRIP attachment infectivity was measured as follows: 1-(percentage of JEV NS5 positivity in treated cells/percentage of JEV NS5 positivity in mock-treated cells). * p < 0.05; *** p < 0.001 compared with untreated, infected cells.
# as §2
# wild-type ZIKV SRIPs = test: Attachment assay with wild-type ZIKV SRIPs on Vero E6 cells; format: cell-based, Zika virus; conditions: 4 °C for 1 h
# Procedure: as §1, §2
SMILES,IC50 (DENV2 prME/ZIKV SRIPs),Attachment of wild-type JEV SRIPs onto Vero E6 cells (wild-type JEV SRIPs),Attachment of wild-type ZIKV SRIPs onto Vero E6 cells (wild-type ZIKV SRIPs)
"COC(=O)[C@H](NC(=O)[C@H]1O[C@@H](O[C@H]2[C@H](OC3CC[C@@]4(C)C(CC[C@]5(C)C4C(=O)C=C4C6C[C@@](C)(C(=O)O)CC[C@]6(C)CC[C@]45C)C3(C)C)O[C@H](C(=O)N[C@@H](C(=O)OC)C(C)C)[C@@H](O)[C@@H]2O)[C@H](O)[C@@H](O)[C@@H]1O)C(C)C (stereo partly drawn) [Compound 3, 3-O-{2-O-[N-(β-D-Glucopyranosyluronoyl)-D-valinemethyl ester]-N-(β-D-glucopyranosyluronoyl)-D-valinemethyl ester}-(3β, 20β)-11-oxo-30-noroleane-12-ene-30-oic Acid]",2820 nM,did not impede,did not impede
"CCOC(=O)[C@H](Cc1ccccc1)NC(=O)[C@H]1O[C@@H](O[C@H]2[C@H](OC3CC[C@@]4(C)C(CC[C@]5(C)C4C(=O)C=C4C6C[C@@](C)(C(=O)O)CC[C@]6(C)CC[C@]45C)C3(C)C)O[C@H](C(=O)N[C@@H](Cc3ccccc3)C(=O)OCC)[C@@H](O)[C@@H]2O)[C@H](O)[C@@H](O)[C@@H]1O (stereo partly drawn) [Compound 11, 3-O-{2-O-[N-(β-D-Glucopyranosyluronoyl)-L-phenylalanineethyl ester]-N-(β-D-Glucopyranosyluronoyl)-L-phenylalanineethyl ester}-(3β, 20β)-11-oxo-30-noroleane-12-ene-30-oic Acid]",1260 nM,did not impede,did not impede

# — publication PMC9499324, “Glycyrrhizic Acid Derivatives Bearing Amino Acid Residues in the Carbohydrate Part as Dengue Virus E Protein Inhibitors: Synthesis and Antiviral Activity” (International Journal of Molecular Sciences, 2022)
